US20230225313A1, “Methods and Compositions for Use in Glued-Wood Products” (ARXADA AG, priority 2020, published 2023)
Like-named read-outs stand apart in the source and are kept apart here.

Assay: Thermogravimetric analysis (TGA), degradation temperature
Format: physicochemical
Protocol: The choice of suitable thermoplastics must also account for the biocide degradation temperature. The temperature of the melted thermoplastic at the point of biocide addition can be any temperature up to the biocide degradation temperature, preferably at least 20° C., and more preferably at least 40° C. below the biocide degradation temperature. Biocide degradation temperatures are most conveniently determined by thermogravimetric analysis (TGA). Unless hot melt mixing is to be performed in an inert atmosphere, TGA should be performed in air to account for oxidative degradation. TGA can be performed according to ISO 11358-1:2014.
Imidacloprid has a degradation temperature of about 274° C. (onset of weight loss, see the thermogravimetric analysis data in FIG. 1). Accordingly, the mixing of imidacloprid with any thermoplastic by hot melt extrusion (HME) should be performed at temperatures less than about 270° C.
Degradation temperatures were established by thermogravimetric analysis (TGA, see FIG. 1) with the following results: bifenthrin 195° C., triadimefon 195° C., and cyproconazole 205° C. These temperatures indicate upper limits for processing these biocides by HME. The melting points for these biocides are: bifenthrin 57-64.6° C., triadimefon 82.3° C., and cyproconazole 106.2-106.9° C.).
“Friable biocide-composites” comprising a biocide, a thermoplastic and an embrittling agent were formed by HME along with a “solidified biocide-composite” comprising a biocide and an embrittling agent, i.e. no thermoplastic. The organoclay Tixogel MP 100 was used as the embrittling agent. Tixogel MP 100 has a thermal degradation temperature of 222° C. measured as onset of weight loss (FIG. 7, note a slight initial loss of moisture). This temperature represents a practical upper limit for HME when using Tixogel MP 100.

Question: For `Cc1c(COC(=O)[C@@H]2[C@H](/C=C(\Cl)C(F)(F)F)C2(C)C)cccc1-c1ccccc1` (relative stereo) [bifenthrin, (2-methyl[1,1′-biphenyl]-3-yl)methyl (1R,3R)-rel-3-[(1Z)-2-chloro-3,3,3-trifluoro-1-propen-1-yl]-2,2-dimethylcyclopropanecarboxylate], which Degradation temperature (TGA, onset of weight loss) is on record?
Answer: 195 °C

Question: For `O=[N+]([O-])NC1=NCCN1Cc1ccc(Cl)nc1` [Imidacloprid, (2E)-1-[(6-chloro-3-pyridinyl)methyl]-N-nitro-2-imidazolidinimin], which Degradation temperature is on record?
Answer: about 274 °C

Question: For `CC(C1CC1)C(O)(Cn1cncn1)c1ccc(Cl)cc1` (stereo not drawn) [cyproconazole, α-(4-chlorophenyl)-α-(1-cyclopropylethyl)-1H-1,2,4-triazole-1-ethanol], which Degradation temperature is on record?
Answer: 205 °C

Question: Which Degradation temperature (TGA, onset of weight loss) does the source give for `CC(C)(C)C(=O)C(Oc1ccc(Cl)cc1)n1cncn1` (stereo not shown) [triadimefon, 1-(4-chlorophenoxy)-3,3-dimethyl-1-(1H-1,2,4-triazol-1-yl)-2-butanone] here?
Answer: 195 °C
